Measured values: patent publication EP0147194B1 (Hosobuchi, Yoshio, priority 1983, dated 1989)
Read-outs that look alike come from different tables or passages of the source.

How the values were obtained:
[1] = tested on: acute focal cerebral ischemia; set-up: species or system cats; settings: in vivo, ip
[2] = tested on: analgesic response; settings: cited from earlier work
[3] = tested on: neurologic deficits secondary to cerebral ischemia; settings: cited from earlier work
[4] = tested on: neurologic deficits produced by unilateral carotid ligation; settings: cited from earlier work

O=C1CC[C@@]2(O)[C@H]3Cc4ccc(O)c5c4[C@@]2(CCN3CC2CC2)[C@H]1O5 [naltrexone]
prolonging survival (mortality as a function of time following the cerebral artery occlusions) [1]: prolonged survival

Dynorphin: opioid peptide first isolated from pituitary glands; natural compound's full 17 amino acid sequence
analgesic potency ([2]; mice): little or no analgesic potency
effect on narcotic analgesia in tolerant animals ([2]; morphine-tolerant animals / tolerant hosts): potentiates the analgetic effect of both morphine and β-endorphin
effect on narcotic analgesia in naive animals ([2]; naive animals, analgesic response to morphine and β-endorphin / narcotic analgesics): inhibits, or antagonizes, the analgesic response to both morphine and β-endorphin

CN1CC[C@]23c4c5ccc(O)c4O[C@H]2[C@@H](O)C=C[C@H]3[C@H]1C5 [morphine]
neurologic deficits secondary to cerebral ischemia ([3]; in vivo): exacerbates them

C=CCN1CC[C@]23c4c5ccc(O)c4O[C@H]2C(=O)CC[C@@]3(O)[C@H]1C5 [naloxone, 17 - allyl - 4,5a - epoxy - 3,14 - dihydroxymorphinan - 6 - one]
prolonging survival (mortality as a function of time following the cerebral artery occlusions) [1]: prolonged survival
neurologic deficits secondary to cerebral ischemia ([3]; man, Lancet 2:272-275 (1981)): can reverse neurologic deficits
neurologic function and infarct size ([4]; gerbils, temporary carotid occlusion, Levy et al. (1982)): did not produce improved neurologic function or alter infarct size
neurologic deficits produced by unilateral carotid ligation ([4]; gerbils, intraperitoneal administration, Science 215:69-71 (1982)): can be reversed
survival and neurologic function ([4]; several different models of stroke in gerbils, Holaday and D'Amato (1982)): no beneficial effect
